{"source": "ChEMBL document CHEMBL1125960", "about": "“Synthesis and biological activity of fluorinated intermediates of the methionine salvage pathway” (Bioorg Med Chem Lett, 1991)", "key": {"AIK-T4 [1]": {"test_system": "AIK-T4", "test": "(§1) The compound was evaluated for toxicity against HIV infected T4 lymphocytes", "type": "functional, cell-based", "settings": "Homo sapiens"}, "NCI-H522": {"test_system": "NCI-H522", "test": "The compound was evaluated for its ability to inhibit growth of non small cell lung cancer ([…] cell line)", "type": "functional", "settings": "Homo sapiens"}, "Plasmodium falciparum [2]": {"test_system": "Plasmodium falciparum", "test": "Growth inhibition of Plasmodium falciparum FCB125", "type": "functional, organism-based"}, "Plasmodium falciparum [3]": {"test_system": "Plasmodium falciparum", "test": "Growth inhibition of chloroquine-resistant Plasmodium falciparum", "type": "functional, organism-based"}, "Plasmodium falciparum [4]": {"test_system": "Plasmodium falciparum", "test": "Growth inhibition of pyrimethamine-resistant Plasmodium falciparum", "type": "functional, organism-based"}, "AIK-T4 [5]": {"test_system": "AIK-T4", "test": "as §1", "type": "functional", "settings": "Homo sapiens"}}, "data": [{"smiles": "NC1=NCN=C2C1N=CN2C1O[C@H](CSCC(F)(F)F)[C@@H](O)[C@H]1O", "note": "(some centres undefined)", "values": [{"measurement": "IC50", "setting": "AIK-T4 [1]", "value": 0.245, "unit": "µM"}, {"measurement": "GI50", "setting": "NCI-H522", "value": 45, "unit": "µM"}, {"measurement": "IC50", "setting": "Plasmodium falciparum [2]", "value": 0.085, "unit": "µM"}]}, {"smiles": "NC1=NCN=C2C1N=CN2C1O[C@H](CSCCF)[C@@H](O)[C@H]1O", "note": "(some centres undefined)", "values": [{"measurement": "IC50", "setting": "Plasmodium falciparum [2]", "value": 0.043, "unit": "µM"}]}, {"smiles": "NC1=NCN=C2C1N=CN2C1O[C@H](CSCC(F)F)[C@@H](O)[C@H]1O", "note": "(some centres undefined)", "values": [{"measurement": "IC50", "setting": "Plasmodium falciparum [2]", "value": 0.025, "unit": "µM"}]}, {"smiles": "OC1OC(CSC(F)(F)F)C(O)C1O", "note": "(centres undefined)", "values": [{"measurement": "IC50", "setting": "Plasmodium falciparum [3]", "value": "> 100", "unit": "µM"}, {"measurement": "IC50", "setting": "Plasmodium falciparum [2]", "value": "> 100", "unit": "µM"}, {"measurement": "IC50", "setting": "Plasmodium falciparum [4]", "value": 50, "unit": "µM"}]}, {"smiles": "NC1=NCN=C2C1N=CN2C1O[C@H](CSC(F)(F)F)[C@@H](O)[C@H]1O", "note": "(some centres undefined)", "values": [{"measurement": "IC50", "setting": "Plasmodium falciparum [2]", "value": 0.018, "unit": "µM"}, {"measurement": "GI50", "setting": "AIK-T4 [5]", "value": 0.117, "unit": "µM"}]}, {"smiles": "NC1=NCN=C2C1N=CN2C1O[C@H](CSC(F)F)[C@@H](O)[C@H]1O", "note": "(some centres undefined)", "values": [{"measurement": "IC50", "setting": "AIK-T4 [1]", "value": 222, "unit": "µM"}, {"measurement": "GI50", "setting": "NCI-H522", "value": 86, "unit": "µM"}, {"measurement": "IC50", "setting": "Plasmodium falciparum [2]", "value": 35, "unit": "µM"}]}, {"smiles": "OC1O[C@H](CSC(F)F)[C@@H](O)[C@H]1O", "note": "(some centres undefined)", "values": [{"measurement": "IC50", "setting": "Plasmodium falciparum [2]", "value": "> 100", "unit": "µM"}]}]}
